In ChEMBL document CHEMBL5653631, “A Potent and Selective ULK1 Inhibitor Suppresses Autophagy and Sensitizes Cancer Cells to Nutrient Stress” (iScience, 2018):
Each block holds one compound with its values, some of them ahead of it.

Experiments:
[1] = molecular target: Serine/threonine-protein kinase 35 (Homo sapiens) (UniProt Q8TDR2); assay: Inhibition of human recombinant CLIK1 at 500 nM related to control ULK1
[2] = molecular target: MAP kinase-interacting serine/threonine-protein kinase 2 (Homo sapiens, UniProt Q9HBH9); assay: Inhibition of human recombinant MNK2 at 500 nM related to control ULK1
MAP kinase-interacting serine/threonine-protein kinase 2, sequence (Q9HBH9 whole entry, looked up): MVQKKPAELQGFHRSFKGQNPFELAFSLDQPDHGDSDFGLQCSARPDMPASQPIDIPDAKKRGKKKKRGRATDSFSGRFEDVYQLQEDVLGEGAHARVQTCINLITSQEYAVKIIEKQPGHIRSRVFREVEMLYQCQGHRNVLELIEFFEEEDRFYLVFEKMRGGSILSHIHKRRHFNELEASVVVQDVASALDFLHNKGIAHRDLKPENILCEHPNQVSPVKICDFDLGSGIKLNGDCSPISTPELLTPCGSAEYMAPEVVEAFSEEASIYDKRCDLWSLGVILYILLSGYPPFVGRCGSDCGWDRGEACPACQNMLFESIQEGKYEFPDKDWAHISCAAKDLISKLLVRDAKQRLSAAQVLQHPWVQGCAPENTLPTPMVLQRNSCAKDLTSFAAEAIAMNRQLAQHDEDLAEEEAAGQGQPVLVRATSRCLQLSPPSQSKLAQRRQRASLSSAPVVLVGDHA

[3] = molecular target: Mitogen-activated protein kinase 14 (Homo sapiens) (UniProt Q16539); assay: Inhibition of human recombinant p38alpha at 500 nM related to control ULK1
Mitogen-activated protein kinase 14 (Homo sapiens), sequence (Q16539 whole entry): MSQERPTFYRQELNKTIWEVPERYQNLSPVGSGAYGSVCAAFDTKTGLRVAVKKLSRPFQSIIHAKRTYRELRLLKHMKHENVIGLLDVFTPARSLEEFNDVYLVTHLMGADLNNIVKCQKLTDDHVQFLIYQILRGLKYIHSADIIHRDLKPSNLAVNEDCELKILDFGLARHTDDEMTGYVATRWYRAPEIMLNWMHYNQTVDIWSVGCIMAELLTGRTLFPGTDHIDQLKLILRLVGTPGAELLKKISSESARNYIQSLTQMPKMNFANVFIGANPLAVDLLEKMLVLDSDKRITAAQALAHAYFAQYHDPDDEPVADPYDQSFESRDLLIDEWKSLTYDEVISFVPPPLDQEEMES

[4] = molecular target: Platelet-derived growth factor receptor beta (Homo sapiens) (UniProt P09619); assay: Inhibition of human recombinant PDGFRb at 500 nM related to control ULK1
[5] = molecular target: Receptor-interacting serine/threonine-protein kinase 2 (Homo sapiens) (UniProt O43353); assay: Inhibition of human recombinant RIPK2 at 500 nM related to control ULK1
Receptor-interacting serine/threonine-protein kinase 2 (Homo sapiens), sequence (O43353 whole entry): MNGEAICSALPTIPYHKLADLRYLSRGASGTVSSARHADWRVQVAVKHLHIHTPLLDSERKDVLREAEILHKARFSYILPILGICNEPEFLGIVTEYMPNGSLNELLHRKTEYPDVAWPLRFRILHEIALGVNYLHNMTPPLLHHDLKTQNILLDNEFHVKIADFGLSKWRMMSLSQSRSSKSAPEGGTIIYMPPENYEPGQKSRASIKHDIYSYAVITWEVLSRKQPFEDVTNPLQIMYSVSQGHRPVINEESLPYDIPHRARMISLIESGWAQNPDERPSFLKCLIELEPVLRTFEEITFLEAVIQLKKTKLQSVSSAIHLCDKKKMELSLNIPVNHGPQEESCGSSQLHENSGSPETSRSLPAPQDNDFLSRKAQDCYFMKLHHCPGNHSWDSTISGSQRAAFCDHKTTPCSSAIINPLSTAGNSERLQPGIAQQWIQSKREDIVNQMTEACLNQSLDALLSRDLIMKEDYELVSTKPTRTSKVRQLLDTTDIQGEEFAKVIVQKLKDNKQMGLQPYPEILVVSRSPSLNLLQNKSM

[6] = molecular target: Calcium/calmodulin-dependent protein kinase type 1B (Homo sapiens) (UniProt Q6P2M8); assay: Inhibition of human recombinant CaMK1b at 40 nM in presence of ATP by radiometric assay relative to control
Calcium/calmodulin-dependent protein kinase type 1B (Homo sapiens), sequence (Q6P2M8 whole entry): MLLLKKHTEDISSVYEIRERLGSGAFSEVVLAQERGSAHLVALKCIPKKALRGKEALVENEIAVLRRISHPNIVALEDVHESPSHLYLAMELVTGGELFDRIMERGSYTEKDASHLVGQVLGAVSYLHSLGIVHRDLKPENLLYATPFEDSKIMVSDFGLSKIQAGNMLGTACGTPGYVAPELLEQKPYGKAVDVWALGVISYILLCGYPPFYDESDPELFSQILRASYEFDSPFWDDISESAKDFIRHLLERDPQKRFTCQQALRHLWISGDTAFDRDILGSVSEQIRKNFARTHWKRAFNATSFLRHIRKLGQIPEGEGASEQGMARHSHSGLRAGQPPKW

[7] = molecular target: Protein-tyrosine kinase 2-beta (Homo sapiens) (UniProt Q14289); assay: Inhibition of human recombinant PYK2 at 40 nM in presence of ATP by radiometric assay relative to control
Protein-tyrosine kinase 2-beta (Homo sapiens), sequence (Q14289 whole entry, looked up): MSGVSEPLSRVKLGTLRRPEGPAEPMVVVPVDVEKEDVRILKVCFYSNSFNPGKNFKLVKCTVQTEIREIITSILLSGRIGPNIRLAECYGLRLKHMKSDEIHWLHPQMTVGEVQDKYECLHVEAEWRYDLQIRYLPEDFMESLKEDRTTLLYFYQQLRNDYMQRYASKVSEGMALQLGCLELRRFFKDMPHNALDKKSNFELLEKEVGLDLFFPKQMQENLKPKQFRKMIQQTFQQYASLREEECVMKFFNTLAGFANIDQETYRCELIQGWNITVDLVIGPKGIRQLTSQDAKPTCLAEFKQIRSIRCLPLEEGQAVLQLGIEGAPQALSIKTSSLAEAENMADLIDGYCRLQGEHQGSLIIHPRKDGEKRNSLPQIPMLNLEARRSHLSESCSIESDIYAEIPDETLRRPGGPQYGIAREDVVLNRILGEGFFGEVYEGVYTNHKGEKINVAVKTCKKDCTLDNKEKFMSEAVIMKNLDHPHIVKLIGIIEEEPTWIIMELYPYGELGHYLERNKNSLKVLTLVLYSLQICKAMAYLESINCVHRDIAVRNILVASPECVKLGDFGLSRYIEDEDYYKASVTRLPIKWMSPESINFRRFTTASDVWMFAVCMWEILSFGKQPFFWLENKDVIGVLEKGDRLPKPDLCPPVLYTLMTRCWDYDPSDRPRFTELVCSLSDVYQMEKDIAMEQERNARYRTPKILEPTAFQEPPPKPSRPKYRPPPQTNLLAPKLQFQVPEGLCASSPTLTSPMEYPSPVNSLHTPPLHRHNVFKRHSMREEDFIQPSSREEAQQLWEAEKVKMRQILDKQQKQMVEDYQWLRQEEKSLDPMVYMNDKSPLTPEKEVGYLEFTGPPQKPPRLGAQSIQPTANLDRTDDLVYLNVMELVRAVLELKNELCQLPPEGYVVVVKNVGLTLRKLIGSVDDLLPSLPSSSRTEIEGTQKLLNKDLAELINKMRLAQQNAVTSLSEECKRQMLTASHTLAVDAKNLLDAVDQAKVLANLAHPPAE

[8] = molecular target: Interleukin-1 receptor-associated kinase 1 (Homo sapiens) (UniProt P51617); assay: Inhibition of human recombinant IRAK1 at 40 nM related to control ULK1
Interleukin-1 receptor-associated kinase 1 (Homo sapiens), sequence (P51617 whole entry, looked up): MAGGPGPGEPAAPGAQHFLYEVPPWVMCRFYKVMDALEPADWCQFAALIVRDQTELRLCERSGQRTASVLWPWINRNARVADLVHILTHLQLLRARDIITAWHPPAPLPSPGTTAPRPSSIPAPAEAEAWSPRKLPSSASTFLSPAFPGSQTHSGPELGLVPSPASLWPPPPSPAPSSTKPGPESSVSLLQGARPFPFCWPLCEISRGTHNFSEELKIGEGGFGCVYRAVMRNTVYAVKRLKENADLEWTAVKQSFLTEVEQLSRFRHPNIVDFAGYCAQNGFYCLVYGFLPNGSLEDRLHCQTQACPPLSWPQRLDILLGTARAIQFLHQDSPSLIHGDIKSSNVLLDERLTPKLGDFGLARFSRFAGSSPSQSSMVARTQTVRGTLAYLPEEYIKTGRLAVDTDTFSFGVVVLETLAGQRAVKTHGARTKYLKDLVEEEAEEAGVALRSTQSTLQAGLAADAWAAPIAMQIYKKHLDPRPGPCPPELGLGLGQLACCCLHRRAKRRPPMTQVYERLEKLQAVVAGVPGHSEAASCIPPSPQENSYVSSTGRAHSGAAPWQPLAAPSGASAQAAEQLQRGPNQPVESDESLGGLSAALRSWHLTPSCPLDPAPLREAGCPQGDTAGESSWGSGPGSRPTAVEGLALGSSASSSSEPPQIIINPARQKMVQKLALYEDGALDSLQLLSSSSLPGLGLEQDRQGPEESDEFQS

[9] = molecular target: Protein kinase C theta type (Homo sapiens) (UniProt Q04759); assay: Inhibition of human recombinant PKCt at 40 nM related to control ULK1
[10] = molecular target: Serine/threonine-protein kinase Chk2 (Homo sapiens) (UniProt O96017); assay: Inhibition of human recombinant CHK2 at 15 nM in presence of ATP by radiometric assay relative to control
Serine/threonine-protein kinase Chk2 (Homo sapiens), sequence (O96017 whole entry, the tested form may be a part): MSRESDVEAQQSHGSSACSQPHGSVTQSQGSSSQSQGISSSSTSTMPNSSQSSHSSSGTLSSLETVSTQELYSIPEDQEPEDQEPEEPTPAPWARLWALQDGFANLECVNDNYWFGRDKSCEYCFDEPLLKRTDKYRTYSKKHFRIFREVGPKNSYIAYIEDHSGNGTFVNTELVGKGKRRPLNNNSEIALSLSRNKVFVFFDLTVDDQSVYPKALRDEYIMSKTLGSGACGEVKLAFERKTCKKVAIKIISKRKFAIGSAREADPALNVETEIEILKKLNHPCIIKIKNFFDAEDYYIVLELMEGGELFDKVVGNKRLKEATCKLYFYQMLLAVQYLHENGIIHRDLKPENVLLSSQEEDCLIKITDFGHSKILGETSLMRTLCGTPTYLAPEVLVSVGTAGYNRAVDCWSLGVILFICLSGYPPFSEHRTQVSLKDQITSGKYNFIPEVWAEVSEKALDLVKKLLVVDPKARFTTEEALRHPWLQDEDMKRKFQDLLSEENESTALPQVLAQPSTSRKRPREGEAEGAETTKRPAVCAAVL

[11] = molecular target: Epithelial discoidin domain-containing receptor 1 (Homo sapiens) (UniProt Q08345); assay: Inhibition of human recombinant DDR1 at 15 nM in presence of ATP by radiometric assay relative to control
Epithelial discoidin domain-containing receptor 1 (Homo sapiens), sequence (Q08345 whole entry, the tested form may be a part): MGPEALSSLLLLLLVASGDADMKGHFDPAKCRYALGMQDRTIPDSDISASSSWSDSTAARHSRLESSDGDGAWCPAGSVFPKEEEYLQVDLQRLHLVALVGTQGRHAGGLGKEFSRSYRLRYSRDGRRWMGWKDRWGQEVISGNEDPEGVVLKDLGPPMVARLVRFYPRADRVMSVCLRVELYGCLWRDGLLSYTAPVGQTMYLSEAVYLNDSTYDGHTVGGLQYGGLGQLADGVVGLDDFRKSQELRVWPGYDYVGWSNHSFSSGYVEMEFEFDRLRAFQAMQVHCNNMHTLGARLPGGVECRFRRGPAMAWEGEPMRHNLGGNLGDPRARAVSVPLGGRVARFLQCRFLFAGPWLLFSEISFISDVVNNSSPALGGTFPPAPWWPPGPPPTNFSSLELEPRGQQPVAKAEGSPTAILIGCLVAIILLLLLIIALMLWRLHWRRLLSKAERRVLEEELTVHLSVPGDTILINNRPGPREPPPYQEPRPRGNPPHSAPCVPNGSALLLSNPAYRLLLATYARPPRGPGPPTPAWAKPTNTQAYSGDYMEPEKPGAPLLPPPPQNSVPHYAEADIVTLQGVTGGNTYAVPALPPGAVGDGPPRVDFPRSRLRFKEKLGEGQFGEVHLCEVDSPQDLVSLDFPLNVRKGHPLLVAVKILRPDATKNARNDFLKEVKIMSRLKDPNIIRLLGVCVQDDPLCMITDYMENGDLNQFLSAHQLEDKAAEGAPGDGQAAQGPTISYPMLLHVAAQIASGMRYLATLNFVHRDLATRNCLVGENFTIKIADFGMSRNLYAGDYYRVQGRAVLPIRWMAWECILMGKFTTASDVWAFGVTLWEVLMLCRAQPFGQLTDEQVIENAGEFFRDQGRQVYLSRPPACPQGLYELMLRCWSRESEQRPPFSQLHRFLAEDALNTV

[12] = molecular target: Tyrosine-protein kinase Fyn (Homo sapiens) (UniProt P06241); assay: Inhibition of human recombinant FYN at 15 nM in presence of ATP by radiometric assay relative to control
[13] = molecular target: T1, Beta-adrenergic receptor kinase 1 (Homo sapiens) (UniProt P25098); assay: Inhibition of human recombinant BARK1 at 15 nM related to control ULK1
T1 sequence (whole entry): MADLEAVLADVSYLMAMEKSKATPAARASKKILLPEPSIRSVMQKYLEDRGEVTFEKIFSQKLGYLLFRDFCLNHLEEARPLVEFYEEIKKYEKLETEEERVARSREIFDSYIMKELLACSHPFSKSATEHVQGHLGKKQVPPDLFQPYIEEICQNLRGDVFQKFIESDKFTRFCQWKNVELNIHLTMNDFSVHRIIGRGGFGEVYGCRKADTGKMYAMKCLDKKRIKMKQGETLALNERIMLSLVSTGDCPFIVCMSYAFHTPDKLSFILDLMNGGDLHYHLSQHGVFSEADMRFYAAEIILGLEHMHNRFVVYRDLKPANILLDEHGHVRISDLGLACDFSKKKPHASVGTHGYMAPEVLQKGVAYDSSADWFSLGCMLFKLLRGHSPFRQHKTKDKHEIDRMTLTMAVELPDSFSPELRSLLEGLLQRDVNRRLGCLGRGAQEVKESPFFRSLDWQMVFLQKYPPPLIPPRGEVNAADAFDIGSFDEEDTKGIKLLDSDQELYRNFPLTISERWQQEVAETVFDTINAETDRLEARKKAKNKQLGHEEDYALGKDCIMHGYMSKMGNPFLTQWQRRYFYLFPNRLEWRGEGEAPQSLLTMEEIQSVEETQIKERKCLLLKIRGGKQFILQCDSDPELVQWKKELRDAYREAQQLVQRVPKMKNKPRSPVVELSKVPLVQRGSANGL

[14] = molecular target: T2, Mitogen-activated protein kinase kinase kinase 5 (Homo sapiens) (UniProt Q99683); assay: Inhibition of human recombinant MAP3K5 at 15 nM related to control ULK1
T2 sequence (whole entry): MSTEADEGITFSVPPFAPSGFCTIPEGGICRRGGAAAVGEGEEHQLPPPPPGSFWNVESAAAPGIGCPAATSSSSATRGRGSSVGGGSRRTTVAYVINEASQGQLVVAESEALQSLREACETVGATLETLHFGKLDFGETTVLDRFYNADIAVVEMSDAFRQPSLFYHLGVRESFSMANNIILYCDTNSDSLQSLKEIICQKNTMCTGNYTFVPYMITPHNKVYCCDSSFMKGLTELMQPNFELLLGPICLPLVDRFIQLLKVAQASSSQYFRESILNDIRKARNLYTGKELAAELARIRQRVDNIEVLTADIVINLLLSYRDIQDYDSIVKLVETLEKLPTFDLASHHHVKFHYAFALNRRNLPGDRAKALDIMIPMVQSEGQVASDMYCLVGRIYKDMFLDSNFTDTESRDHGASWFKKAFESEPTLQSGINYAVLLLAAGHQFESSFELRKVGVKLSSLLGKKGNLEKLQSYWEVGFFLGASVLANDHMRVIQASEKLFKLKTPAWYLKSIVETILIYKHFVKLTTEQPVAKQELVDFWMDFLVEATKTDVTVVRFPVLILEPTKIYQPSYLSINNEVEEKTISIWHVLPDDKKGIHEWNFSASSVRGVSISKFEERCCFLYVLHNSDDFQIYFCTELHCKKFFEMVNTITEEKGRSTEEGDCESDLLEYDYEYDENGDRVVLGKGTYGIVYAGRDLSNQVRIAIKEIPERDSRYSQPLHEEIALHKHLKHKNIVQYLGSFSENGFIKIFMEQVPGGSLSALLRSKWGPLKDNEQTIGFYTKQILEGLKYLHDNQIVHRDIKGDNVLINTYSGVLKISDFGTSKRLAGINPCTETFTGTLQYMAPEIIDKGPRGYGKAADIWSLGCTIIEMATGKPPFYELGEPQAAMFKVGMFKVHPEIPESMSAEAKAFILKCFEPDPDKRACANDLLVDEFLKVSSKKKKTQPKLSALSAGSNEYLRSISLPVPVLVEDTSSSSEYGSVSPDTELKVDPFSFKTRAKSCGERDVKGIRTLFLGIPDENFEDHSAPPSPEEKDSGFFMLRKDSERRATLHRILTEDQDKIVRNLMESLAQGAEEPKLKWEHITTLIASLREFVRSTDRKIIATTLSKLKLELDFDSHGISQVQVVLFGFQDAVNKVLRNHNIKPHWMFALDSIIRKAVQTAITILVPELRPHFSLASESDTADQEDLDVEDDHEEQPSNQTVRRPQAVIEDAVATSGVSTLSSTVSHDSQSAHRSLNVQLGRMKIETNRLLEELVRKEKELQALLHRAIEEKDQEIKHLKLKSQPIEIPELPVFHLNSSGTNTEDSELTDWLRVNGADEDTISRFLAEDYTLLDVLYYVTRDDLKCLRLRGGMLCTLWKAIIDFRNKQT

fold change (FC) [1]: 0.04 | fold change (FC) [2]: 0.03 | fold change (FC) [3]: 0.07 | fold change (FC) [4]: 0 | fold change (FC) [5]: 0
SMILES: CNC(=O)c1ccccc1Oc1nc(Nc2cc(OC)c(OC)c(OC)c2)ncc1Br

inhibition [6]: 0% | inhibition [7]: 3% | fold change (FC) [8]: 0.1 | fold change (FC) [9]: 0
SMILES: O=C(N[C@@H](C1CC1)C(F)(F)F)c1cc(-c2cnn3cc(-c4ccc(F)cc4)cnc23)cs1

inhibition [10]: 0% | inhibition [11]: 78% | inhibition [12]: 16% | fold change (FC) [13]: 0 | fold change (FC) [14]: 0
SMILES: CC(C)[C@H](NC(=O)c1cc(-c2cnn3cc(-c4ccc(OCCN5CCCCC5)cc4)cnc23)cs1)C(F)(F)F
